Experimental data reported in the supplement of paper PMC4862054.

What was measured:
Assay in all cases: normalised response (% of control), CellTox Green; higher = less cell death (100 = DMSO, 0 = benzethonium chloride kill control)
Conditions in all cases: incubation time: 72 h
BT-474 = test system: BT-474
In short: (§1)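 Breast cancer cell lines (20 µl suspension) were seeded into 384-well plates holding compound at 5 concentrations in 10-fold steps over a compound-specific 10,000-fold range, then incubated 72 h. CellTox Green fluorescence (485/520 nm) was read first, then CellTiter-Glo luminescence after 10 min at room temperature. Each plate was normalised to 0.1 % DMSO (100) and a positive kill control (0). Each value is the normalised signal at a single concentration of the series.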

BT-549 = test system: BT-549
In short: as §1

CAL-120 = test system: CAL-120
In short: as §1

CAL-148 = test system: CAL-148
In short: as §1

CAL-51 = test system: CAL-51
In short: as §1

CAL-85-1 = test system: CAL-85-1
In short: as §1

DU-4475 = test system: DU-4475
In short: as §1

HCC1599 = test system: HCC1599
In short: as §1

MDA-MB-453 = test system: MDA-MB-453
In short: as §1

Row | Compound | normalised response (BT-474) [%] | normalised response (BT-549) [%] | normalised response (CAL-120) [%] | normalised response (CAL-148) [%] | normalised response (CAL-51) [%] | normalised response (CAL-85-1) [%] | normalised response (DU-4475) [%] | normalised response (HCC1599) [%] | normalised response (MDA-MB-453) [%]
1 | COc1ncc(-c2ccc3nccc(-c4ccnnc4)c3c2)cc1NS(=O)(=O)c1ccc(F)cc1F (100 nM) | 69.1 | 94.8 | 102 | 67 | 70 | 99.1 | 99.6 | 106 | 95
2 | COc1ncc(-c2ccc3nccc(-c4ccnnc4)c3c2)cc1NS(=O)(=O)c1ccc(F)cc1F (1000 nM) | 36.8 | 70.9 | 102 | 45 | 46.1 | 52.1 | 83.9 | 88.6 | 73.4
3 | C[C@@]1(C(=O)Nc2ccc(F)nc2)CCCN1c1nc(Nc2cc(C3CC3)n[nH]2)c2cccn2n1 (1000 nM) | 97.7 | 104 | 98.1 | 88.8 | 49.5 | 95 | 90.6 | 97.6 | 104
4 | C[C@@]1(C(=O)Nc2ccc(F)nc2)CCCN1c1nc(Nc2cc(C3CC3)n[nH]2)c2cccn2n1 (10000 nM) | 95.3 | 65.3 | 26.9 | 59.1 | 18.7 | 67.8 | 90.2 | 90.1 | 109
5 | COc1c(C)cnc(Cn2cnc3c(Cl)nc(N)nc32)c1C [BIIB021] (1000 nM) | 77.3 | 139 | 95.5 | 26.9 | 71.2 | 71.3 | 68.5 | 107 | 102
6 | COc1c(C)cnc(Cn2cnc3c(Cl)nc(N)nc32)c1C [BIIB021] (10000 nM) | 49.4 | 130 | 94.9 | 49.2 | 58.2 | 39 | 80.3 | 113 | 93.5
7 | CC(C)C[C@H](NC(=O)[C@H](Cc1ccccc1)NC(=O)c1cnccn1)B(O)O [Bortezomib] (100 nM) | 67.6 | 55.3 | 35.5 | -26.8 | -29 | -7.21 | 89.7 | 87.5 | 92.7
8 | CC(C)C[C@H](NC(=O)[C@H](Cc1ccccc1)NC(=O)c1cnccn1)B(O)O [Bortezomib] (1000 nM) | 59.7 | 43.7 | 14.2 | 38 | 15.4 | -48 | 76.1 | 81.6 | 70.9
9 | CS(=O)(=O)OCCCCOS(C)(=O)=O [Busulfan] (10000 nM) | 101 | 108 | 103 | 106 | 113 | 103 | 102 | 82 | 103
10 | CS(=O)(=O)OCCCCOS(C)(=O)=O [Busulfan] (100000 nM) | 100 | 110 | 101 | 81.5 | 106 | 77.6 | 97.4 | 108 | 97.6
11 | C#Cc1cccc(Nc2ncnc3cc(OC)c(OCCCCCCC(=O)NO)cc23)c1 [CUDC-101] (1000 nM) | 83.7 | 142 | 90.9 | 74.4 | 86.1 | -33 | 81.3 | 82.2 | 65.4
12 | C#Cc1cccc(Nc2ncnc3cc(OC)c(OCCCCCCC(=O)NO)cc23)c1 [CUDC-101] (10000 nM) | 10.6 | 108 | 29.1 | -3.26 | 4.75 | -59 | 82.4 | 79.8 | 83.7
13 | COc1cccc2c1C(=O)c1c(O)c3c(c(O)c1C2=O)C[C@@](O)(C(C)=O)C[C@@H]3O[C@H]1C[C@H](N)[C@H](O)[C@H](C)O1 [Daunorubicin] (100 nM) | 99.5 | 124 | 105 | -17.1 | 73.5 | 102 | 100 | 102 | 110
14 | COc1cccc2c1C(=O)c1c(O)c3c(c(O)c1C2=O)C[C@@](O)(C(C)=O)C[C@@H]3O[C@H]1C[C@H](N)[C@H](O)[C@H](C)O1 [Daunorubicin] (1000 nM) | 101 | 145 | 99.2 | 75 | 42.6 | 76.2 | 104 | 138 | 120
15 | CN1CCN(c2ccc3nc(-c4c(N)c5c(F)cccc5[nH]c4=O)[nH]c3c2)CC1 [Dovitinib] (1000 nM) | 97.7 | 131 | 94 | 103 | 105 | 97.8 | 98.6 | 106 | 101
